Each block holds one compound with its values, some of them ahead of it.
Tests used:
HEK 293T cells [1] = assay: cell proliferation (MTT) assay; type: cell-based, human; details: MTT, 72 h; for EC50: Homo sapiens, HEK-293T, read-out: EC50 cell growth
Experimental: HEK 293T or HEK 293 PARP-1 KO cells were seeded in a 96 well plate at 1000-2000 cells per well. Following an overnight incubation, MTT reagent, 3-(4,5-dimethylthiazol-2-yl)-2,5-diphenyltetrazolium bromide, or a dosage curve of indicated inhibitor was added to each well in quadruplicate. Following a 3-hour incubation at 37° C., wells containing MTT reagent, were aspirated and lysed with 100 μl DMSO. These wells acting as a no growth control were collected, saved @ −20° C., and replaced with 100 μl water. The plate was placed back into the incubator for a total of 72 hours of inhibitor treatment prior to MTT reagent being added for a final time. Following a 3 hour incubation with the reagent, wells were aspirated, and 100 μl DMSO were added to each well, while the no growth control sample was added back to the plate. Absorbance was read on a SpectraMaxi3 plate reader (Molecular Devices). Percent growth was calculated for analysis. Statistical significance was assigned using individual t-tests between conditions for each inhibitor dosage.
(§1) Error bars represent SEM. […] Error bars represent SEM. […] Error bars represent SEM.

HEK 293T cells [2] = assay: analysis of cell cycle (DAPI, flow cytometry); details: for G1 / G2 / S: DAPI intensity, 18 hours
Experimental: After the indicated treatments, cells were washed twice with 1× PBS, trypsinized off of the plate, and washed an additional 2 times with 1×PBS. Cells were then permeabilized using 70% cold ethanol while vortexing before incubating for 30 min at 4° C. Cells were then washed three times with 1×PBS and counted using a hemocytometer to create a final pellet of 1×10^6 cells in for each inhibitor condition. 500 μl of DAPI solution (1 μg/ml DAPI, 0.1% Triton X-100 in PBS) was added to each cell pellet and incubated on ice for 30 min before being analyzed by flow cytometry using a BD Canto II. All data was analyzed on FlowJo software, gating for 20,000 singlet events. Manual cell cycle gates were set onto the DMSO control data using Watson modeling as reference. These gates were applied to all treatment conditions to obtain quantitative analysis.
Error bars represent SEM. […] Caspase-Glo 3/7 reagent was added to each well and luminescence was read after 30 minutes. […] Error bars represent SEM. […] Cell cycle was analyzed by flow cytometry (20,000 singlet events) and cell cycle statistics were calculated in FlowJo software against DMSO Watson modeling (n=3). FIG. 3F) DNA synthesis was measured using EdU incorporation. […] EdU incorporation was labelled using TAMRA azide click-chemistry and imaged at 20×. Mean intensity of TAMRA signal within DAPI masks analyzed using Zen software (n>3900 cells over 2 replicates). Values are normalized to the average DMSO control within each replicate. Error bars represent SEM. Statistical significance calculated via one-way ANOVA with Tukey's multiple comparisons test (p<0.05).

[3] = tested on: pan-nuclear γH2AX in HEK 293T cells; assay: γH2AX immunofluorescence; type: cell-based, human; details: for reduction of AZ0108-induced pan-nuclear γH2AX / increase of AZ0108-induced pan-nuclear γH2AX: kinase inhibitor co-treated with AZ0108
Experimental: HEK 293T or HEK 293 PARP-1 KO cells were seeded onto poly-d-lysine treated glass coverslips and treated with indicated concentrations of inhibitors for 18 hours. Cells were then washed with 1×PBS and fixed using 4% Sucrose/4% Paraformaldehyde in PBS for 20 minutes. After three washes in 1×PBS, cells were permeabilized in 0.3% Triton X-100 in PBS for 5 minutes followed by an additional three washes in 1×PBS. Coverslips were blocked in 3% BSA/0.1% Triton X-100 in PBS for 1 hour and then placed in primary anti-rabbit phosphoH2Ax antibody (1:200, Cell Signaling) overnight at 4° C. The next morning, cells were washed three times in 1×PBS and treated with blocking solution, 3% BSA/0.1% Triton X-100 in PBS, for 30 minutes before being placed in secondary anti-rabbit Alexa Fluor 647 (1:1000 Jackson Immuno) for 1 hour at RT. After three subsequent 1×PBS washes, coverslips were mounted using ProLong Gold antifade reagent with DAPI (Invitrogen). All immunofluorescence images were taken on a Zeiss ApoTome2 on Axiolmager and analyzed using Zeiss software. Mean intensity of the Alexa Fluor 647 signal was measured after imposing DAPI masks over the nucleus of each cell. All cells within a 20× image, was analyzed (˜3000 cells/condition).
Cell are stained for DAPI and γH2AX. Scale bar indicates 50 μm. FIG. 2B) Quantification of panel a. […] Error bars represent SEM. […] Error bars represent SEM. […] Error bars represent SEM.

[4] = tested on: caspase-3/7 activity in HEK 293 cells; assay: cell apoptosis assay (Caspase-Glo 3/7); type: cell-based, human; details: 1 μM, 72 hours
Experimental: HEK 293 or HEK 293 PARP-1 KO cells were seeded in a 96 well plate at 1000-2000 cells per well, a media only “blank” was also included. Following an overnight incubation, cells were treated with 1 μM of indicated inhibitors. “Blank” wells were treated with DMSO. Following a 72 hour inhibitor treatment, the Caspase-Glo 3/7 Assay was completed following the manufacturer instructions (Promega, #G8091). Luminescence was read on a SpectraMax i3 plate reader (Molecular Devices).
as §1

[5] = tested on: Ewing sarcoma cell line EW-8; assay: ES-8 viability screen (CellTiter-Glo); type: cell-based; details: for Fold Difference to Pip6: ratio of EC50 values; for EC50: viability, 72 h
Experimental: Cell viability was measured using the CellTiter-Glo (Promega, G7573) assay and read using an Envision (PerkinElmer) plate reader. Compound source plates (96-well) were prepared by solubilizing each drug in DMSO to a maximum concentration of 1-50 mM, then arraying samples in 10-point dose-response with 3-fold dilution. Positive and negative controls (staurosporine at 10 mM and DMSO, respectively) were added to the source plates. Drug was transferred from the source plate to the assay plate using a Biomek FX (Beckman Coulter) liquid handler equipped with a pin tool which transferred ˜100 nl into a final volume of 100 μl, resulting in ˜1000-fold dilution. At least two biological replicates (assay performed on different day with same drug plate and independent cell preparation) were obtained for each drug. To analyze the assay, the relative light unit signal in each well was first log 2 transformed, then normalized by subtracting the mean of the negative controls wells on each plate.
FIGS. 6A-6E. […] 0.1 μM ad-olaparib (chemical structure indicated in panel a) was added to the cells for 1 hour before undergoing a UV treatment for 5 minutes in cold PBS. Cells were lysed and sonicated in PBS (1% Triton X-100+1% SDS), clicked with TAMRA-azide and run out on SDS-PAGE. The gel was imaged for TAMRA and probed for PARP-1 (Bethyl Laboratories), and alpha-tubulin (X). FIGS. 6B, 6D) Quantification of western blot images. TAMRA or ADPr values are normalized to PARP-1 within each replicate and plotted as percentage compared to DMSO. Error bars indicate SEM (n=3-4). Statistical significance of off-rate calculated via multiple t-tests (p<0.05). […] Cells were subsequently treated with PARGi (10 μM) for 30 minutes, lysed using RIPA buffer, run out on SDS-PAGE, and probed for ADPr (Cell Signaling) and PARP-1 (Bethyl Laboratories). FIG. 6E) ES-8 cells were treated with indicated concentration of inhibitors for 72 hours before measuring cell viability using the CellTiter-Glo kit (Promega G7573). IC50 values were calculated using R statistical software.

[6] = tested on: PARP-1 (full-length WT) (Homo sapiens); assay: FP; details: 5 uM AZ0108 increased affinity 4-fold over no inhibitor; olaparib only modest effect
PARP-1 [7] = target: T1, PARP-1 (Homo sapiens, UniProt P09874); assay: in vitro fluorescence polarization DNA competition assay; details: 25 μM compound; PARP-1 40 nM; nicked dumbbell DNA probe 20 nM
Experimental: The full-length WT PARP-1 protein used in these assays was purified as described previously (30).
An unlabeled competitor was added and the decrease in fluorescence polarization was measured across time.

PARP-1 [8] = target: T1, PARP-1; assay: in vitro PARP-1 auto-PARylation assay (SRPK2 plate assay); type: biochemical; parameters: The full-length WT PARP-1 protein used in these assays; made in house; details: read-out: IC50 against PARP-1 catalytic activity (auto-PARylation)
Experimental: IC50 SRPK2 Plate Assays were performed as previously described (21). Log(inhibitor) versus response curves were fit using non-linear regression with variable slope. Mean IC50 values for each compound were derived from a minimum of three separate replicates.

[9] = tested on: Ser345 phosphorylation of Chk1 in HEK 293 cells; assay: western blot analysis of phosphorylation of Chk1; details: co-treatment with AZ0108

T1 sequence (P09874 whole entry): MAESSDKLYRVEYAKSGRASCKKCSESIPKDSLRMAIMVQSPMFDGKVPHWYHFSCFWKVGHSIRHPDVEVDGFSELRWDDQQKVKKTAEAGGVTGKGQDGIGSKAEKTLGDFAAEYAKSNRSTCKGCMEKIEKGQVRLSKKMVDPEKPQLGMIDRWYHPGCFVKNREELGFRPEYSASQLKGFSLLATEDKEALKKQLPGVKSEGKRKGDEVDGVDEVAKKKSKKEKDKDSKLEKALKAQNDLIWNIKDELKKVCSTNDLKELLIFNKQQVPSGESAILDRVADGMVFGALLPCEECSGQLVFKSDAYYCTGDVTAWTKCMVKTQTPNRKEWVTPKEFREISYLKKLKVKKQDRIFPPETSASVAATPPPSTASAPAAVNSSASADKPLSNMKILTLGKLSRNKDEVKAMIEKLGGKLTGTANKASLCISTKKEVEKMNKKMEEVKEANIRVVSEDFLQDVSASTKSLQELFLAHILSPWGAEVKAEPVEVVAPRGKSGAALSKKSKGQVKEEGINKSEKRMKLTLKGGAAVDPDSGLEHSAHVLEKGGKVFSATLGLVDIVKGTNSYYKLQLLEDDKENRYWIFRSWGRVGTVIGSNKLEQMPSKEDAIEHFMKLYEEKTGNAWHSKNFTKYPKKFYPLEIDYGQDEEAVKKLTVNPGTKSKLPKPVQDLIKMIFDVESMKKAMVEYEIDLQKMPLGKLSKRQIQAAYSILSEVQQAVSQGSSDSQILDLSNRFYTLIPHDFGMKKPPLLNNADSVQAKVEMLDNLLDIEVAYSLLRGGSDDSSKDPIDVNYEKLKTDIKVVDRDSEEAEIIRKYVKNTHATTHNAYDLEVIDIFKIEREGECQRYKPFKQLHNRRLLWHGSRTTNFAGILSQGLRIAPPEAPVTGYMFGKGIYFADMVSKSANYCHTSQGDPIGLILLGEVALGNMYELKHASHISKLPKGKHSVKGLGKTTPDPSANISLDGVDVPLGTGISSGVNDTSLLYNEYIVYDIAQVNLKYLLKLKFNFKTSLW

Compound: O=C(c1cc(Cc2n[nH]c(=O)c3ccccc23)ccc1F)N1CCN(C(=O)C2CC2)CC1 [Olaparib]
EC50 (HEK 293T cells [1]): ~10000 nM
G1 (HEK 293T cells [2]): 19.4%
G2 (HEK 293T cells [2]): 9.50%
S (HEK 293T cells [2]): 54.0%
effect on cell cycle (HEK 293T cells [2]; FACS, DAPI fluorescence): did not alter the cell cycle
pan-nuclear γH2AX induction ([3]; HEK 293T cells, 18 hours): did not induce either pan-nuclear γH2AX or γH2AX foci
effect of co-treatment on AZ0108-induced pan-nuclear γH2AX ([3]; co-treatment with AZ0108): reversed the effects of AZ0108 on pan-nuclear γH2AX
reduction of caspase-3/7 activity [4]: did not significantly affect

EC50 [5]: 59600 nM
Compound: C[C@]1(c2nc3c(C(N)=O)cccc3[nH]2)CCCN1 [Veliparib]
Fold Difference to Pip6 [5]: 245827

Compound: O=c1cc(-c2cccc3c2Sc2ccccc2S3)oc(N2CCOCC2)c1 [KU-55933]
reduction of AZ0108-induced pan-nuclear γH2AX [3]: ~2 fold

Compound: CC(F)(F)c1nnc2n1CCN(C(=O)c1cc(Cc3n[nH]c(=O)c4ccccc34)ccc1F)C2 [Pip5, 4-(4-Fluoro-3-(3-(1,1-difluoroethyl)-5,6,7,8-tetrahydro-[1,2,4]triazolo[4,3-a]pyrazine-7-carbonyl)benzyl)phthalazin-1(2H)-one]
potency in inhibiting cell growth compared with AZ0108 (HEK 293T cells [1]): substantially more potent than AZ0108

Compound: Cc1cn([C@H]2C[C@H](O)[C@@H](CO)O2)c(=O)[nH]c1=O [Thymidine]
G1 (HEK 293T cells [2]): 2.79%
G2 (HEK 293T cells [2]): 7.06%
S (HEK 293T cells [2]): 76.3%

EC50 [5]: 14.2 nM
Compound: Cn1ncnc1[C@H]1c2n[nH]c(=O)c3cc(F)cc(c23)N[C@@H]1c1ccc(F)cc1 [Talazoparib]
Fold Difference to Pip6 [5]: 59

Compound: Oc1c2ccccc2c2c3c(cccc13)N=N2 [SP600125]
reduction of AZ0108-induced pan-nuclear γH2AX [3]: ~2 fold

Compound: O=C(c1cc(Cc2n[nH]c(=O)c3ccccc23)ccc1F)N1CCn2c(nnc2C(F)(F)F)C1 [Pip3, 4-(4-Fluoro-3-(3-(trifluoromethyl)-5,6,7,8-tetrahydro-[1,2,4]triazolo[4,3-a]pyrazine-7-carbonyl)benzyl) phthalazin-1(2H)-one]
potency in inhibiting cell growth compared with AZ0108 (HEK 293T cells [1]): substantially more potent than AZ0108

Compound: dumbbell DNA probe with central nick
binding signal [6]: 4 fold

EC50 [5]: 5570 nM
Compound: CNCc1ccc(-c2[nH]c3cc(F)cc4c3c2CCNC4=O)cc1 [Rucaparib]
Fold Difference to Pip6 [5]: 22998

exchange of the PARP-1:labled DNA complex with an unlabeled DNA competitor (PARP-1 [7]): very little impact
Compound: Cc1nnc2n1CCN(C(=O)c1cc(Cc3n[nH]c(=O)c4ccccc34)ccc1F)C2 [Pip2, 4-(4-Fluoro-3-(3-methyl-5,6,7,8-tetrahydro-[1,2,4]triazolo[4,3-a]pyrazine-7-carbonyl)benzyl) phthalazin-1(2H)-one]

Compound: O=c1cc(N2CCOCC2)oc2c(-c3cccc4c3sc3ccccc34)cccc12 [NU7441]
increase of AZ0108-induced pan-nuclear γH2AX [3]: ~1.3 fold

IC50 (PARP-1 [8]): 17.5 nM
Compound: CC(C)c1nnc2n1CCN(C(=O)c1cc(Cc3n[nH]c(=O)c4ccccc34)ccc1F)C2 [Pip4, 4-(4-Fluoro-3-(3-isopropyl-5,6,7,8-tetrahydro-[1,2,4]triazolo[4,3-a]pyrazine-7-carbonyl)benzyl) phthalazin-1(2H)-one]

exchange of the PARP-1:labled DNA complex with an unlabeled DNA competitor (PARP-1 [7]): very little impact
IC50 (PARP-1 [8]): 3.9 nM
Compound: O=C(c1cc(Cc2n[nH]c(=O)c3ccccc23)ccc1F)N1CCn2cnnc2C1 [Pip1, 4-(4-Fluoro-3-(5,6,7,8-tetrahydro-[1,2,4]triazolo[4,3-a]pyrazine-7-carbonyl)benzyl)phthalazin-1(2H)-one]
EC50 (HEK 293T cells [1]): ~6000 nM

EC50 [5]: 0.75 nM
Compound: CCc1c2c(nc3ccc(O)cc13)-c1cc3c(c(=O)n1C2)COC(=O)[C@]3(O)CC [SN-38]
Fold Difference to Pip6 [5]: ~3

Compound: CS(=O)(=O)c1ccc(-c2cnc(N)c(C(=O)Nc3ccccc3)n2)cc1 [VE-821]
effect on AZ0108-induced Ser345 phosphorylation of Chk1 [9]: significantly inhibited
increase of AZ0108-induced pan-nuclear γH2AX [3]: ~1.3 fold

EC50 [5]: 1380 nM
Compound: NC(=O)c1cccc2cn(-c3ccc([C@@H]4CCCNC4)cc3)nc12 [Niraparib]
Fold Difference to Pip6 [5]: 5693
